Test results: patent US20140303092A1 (CHIMERIX, INC., priority 2011, published 2014)

Assay: Study HDP-CDV-201: safety and tolerability (adverse events, laboratory abnormalities, discontinuations)
Assay type: in vivo, human (adult allogeneic HSCT recipients)
Protocol: Clinical Studies of HDP-CDV were performed and described in detail in the following Examples. For example, HDP-CDV-201 is a placebo-controlled, dose-escalating trial in HSCT CMV (R+) recipients, evaluating the ability of HDP-CDV to prevent or control CMV infection was carried out. Five cohorts were established in which participants or subjects received either placebo or the HDP-CDV orally, in doses ranging from 40 mg weekly (QW) to 200 mg twice weekly (BIW). Subjects who were post-HSCT were enrolled at the time of engraftment and randomized to HDP-CDV or placebo (3 to 1 ratio) and received blinded therapy until approximately 100 day post-transplantation. HDP-CDV doses were 40 mg QW, 100 mg QW, 200 mg QW, 200 mg BIW and 100 mg BIW. Escalation to the next dose was decided by the data monitoring committee after review of the safety data from the previous Cohort. Subjects who developed CMV disease or CMV infection requiring pre-emptive therapy with local standard of care were discontinued from blinded therapy and followed for 4 weeks. Subjects who completed treatment with blinded therapy were followed for 8 weeks post-therapy.
Data from Study HDP-CDV-201 also provided characterization of the safety and tolerability profile of HDP-CDV when administered for the prevention or control of CMV infection in high risk (R^+) post-HSCT adult subjects.
The Safety population (SAFETY) included all randomized subjects who took at least one dose of study treatment. This population was used to summarize safety outcomes based on the treatment actually received, in cases where a subject was treated contrary to the randomization schedule.
The safety and tolerability profile of HDP-CDV, including subject demographics and Baseline characteristics; the AE profile; and laboratory abnormalities of interest were analyzed in the cohorts followed in this investigation.
Subjects completing the treatment period received a full course of study medication; those completing the entire study attended visits through 8 weeks of follow up. Subjects who discontinued treatment may have done so for protocol specified reasons (e.g. development of clinically significant CMV infection requiring preemptive treatment with excluded anti-CMV medications) or for other reasons (e.g., withdrawal, adverse events, loss to follow-up). The disposition of subjects in Study HDP-CDV-201 during the double-blind, placebo-controlled treatment period (through Week 11) is listed by dosing Cohort in TABLE 23.
Adverse events were examined by severity to ensure that all safety signals were identified in this study population. Because of the frequency of events in HSCT recipients, particular attention was given to evaluation of Grade 3 […], 4 (severe), and 5 (fatal) adverse events.
Only those preferred terms for which at least one Grade 3 or higher event was experienced in any treatment group are listed. Cytomegalovirus-related AEs are excluded from this analysis.
HDP-CDV is a lipid conjugate of CDV. Because CDV is known to have adverse effects on renal function and bone marrow, decreased GFR and persistent neutropenia were identified as AEs of special interest. Key renal and hematological (TABLE 30) laboratory parameters were measured and listed below by Study HDP-CDV-201 treatment groups. TABLE 30 includes abnormal levels of serum creatinine, neutrophils, platelets, WBCs, and hemoglobin and includes data at Screening and during the treatment period.
A common metric for unit based dosing of medications is by weight (mg/kg). When the distribution of weights was examined for all subjects participating in the study, the median was 78 kg and the lower 25th percentile weight was approximately 65 kg, which translates to a cut-off of ˜3 mg/kg for a 200 mg total weekly dose. Based upon this approach, a cut-off of 3 mg/kg was used to assess the frequency of diarrhea and associated GI AEs reported for the subjects in Cohorts 3 or 4a (TABLE 40).

[1] = Cohort 4, 200 mg BIW, through Week 11

CCCCCCCCCCCCCCCCOCCCOP(=O)(O)COC(CO)Cn1ccc(N)nc1=O (stereo not drawn) [HDP-CDV]
3 (10.0%) n (%): TEAE Abdominal pain, Upper (Cohort 4, 200 mg BIW, N = 30) | TEAE Acute Renal Failure (Cohort 4, 200 mg BIW, N = 30) | TEAE Back Pain (Cohort 4, 200 mg BIW, N = 30) | TEAE Blood lactate dehydrogenase increased (Cohort 4, 200 mg BIW, N = 30) | TEAE Dysgeusia (Cohort 4, 200 mg BIW, N = 30) | TEAE Gamma-glutamyltransferase increased (Cohort 4, 200 mg BIW, N = 30) | TEAE Generalized oedema (Cohort 4, 200 mg BIW, N = 30) | TEAE Hyperkalemia (Cohort 4, 200 mg BIW, N = 30) | TEAE Hypocalcaemia (Cohort 4, 200 mg BIW, N = 30) | TEAE Increased leukocytosis (Cohort 4, 200 mg BIW, N = 30) | TEAE Liver function test abnormal (Cohort 4, 200 mg BIW, N = 30) | TEAE Malnutrition (Cohort 4, 200 mg BIW, N = 30) | TEAE Oedema peripheral (Cohort 4, 200 mg BIW, N = 30) | TEAE Recurrent flatulence (Cohort 4, 200 mg BIW, N = 30)
10 (20.0%): ALT (any time during therapy) >3 × ULN-5 × ULN, subjects (Cohort 4A, 100 mg BIW)
not related: Relationship of hepatobiliary AE hyperbilirubinemia, subject 4042 (Cohort 4, drug interrupted)
1 (3.3%): Nausea leading to study drug withdrawal (Cohort 4, 200 mg BIW, N = 30)
3 (6.0%): AST (any time during therapy) >5 × ULN-10 × ULN, subjects (Cohort 4A, 100 mg BIW) | Alkaline Phosphatase (any time during therapy) >2.5-5.0 × ULN, subjects (Cohort 4A, 100 mg BIW) | Gastrointestinal AE Flatulence, subjects (Cohort 4A, 100 mg BIW) | Hepatobiliary clinical AE Hyperbilirubinaemia, subjects (Cohort 4A, 100 mg BIW)
1 (2.0%): ALT (any time during therapy) >10 × ULN-20 × ULN, subjects (Cohort 4A, 100 mg BIW) | ALT (any time during therapy) >20 × ULN, subjects (Cohort 4A, 100 mg BIW) | GI AE Leading to Study Drug Discontinuation: Abdominal pain, subjects (Cohort 4A, 100 mg BIW) | GI AE Leading to Study Drug Discontinuation: Nausea, subjects (Cohort 4A, 100 mg BIW) | GI AE Leading to Study Drug Discontinuation: Vomiting, subjects (Cohort 4A, 100 mg BIW) | Gastrointestinal AE Haemorroids, subjects (Cohort 4A, 100 mg BIW)
22 (44.0%): Gastrointestinal AE Vomiting, subjects (Cohort 4A, 100 mg BIW)
3: Grade of hepatobiliary AE acute liver injury, subject 4008 (Cohort 4, drug withdrawn)
17 (34.0%): Gastrointestinal AE Nausea, subjects (Cohort 4A, 100 mg BIW)
8 (17.4%): Alkaline Phosphatase (Screening) >ULN-[…] ULN, subjects (Cohort 4A, 100 mg BIW)
5 (16.7%) n (%): TEAE Cytomegalovirus viremia (Cohort 4, 200 mg BIW, N = 30) | TEAE Decreased appetite (Cohort 4, 200 mg BIW, N = 30) | TEAE Hyperbilirubinaemia (Cohort 4, 200 mg BIW, N = 30) | TEAE Hypokalaemia (Cohort 4, 200 mg BIW, N = 30) | TEAE Thrombocytopenia (Cohort 4, 200 mg BIW, N = 30)
11 (22.0%): Alkaline Phosphatase (any time during therapy) >ULN-[…] ULN, subjects (Cohort 4A, 100 mg BIW)
11 (36.7%) n (%): TEAE Abdominal pain (Cohort 4, 200 mg BIW, N = 30) | TEAE Nausea (Cohort 4, 200 mg BIW, N = 30)
0 n (%): TEAE Acute Myeloid Leukemia recurrent (Cohort 4, 200 mg BIW, N = 30) | TEAE Fatigue (Cohort 4, 200 mg BIW, N = 30) | TEAE Renal Failure (Cohort 4, 200 mg BIW, N = 30)
2 (4.0%): AST (any time during therapy) >3 × ULN-5 × ULN, subjects (Cohort 4A, 100 mg BIW) | GI AE Leading to Study Drug Discontinuation: Diarrhoea, subjects (Cohort 4A, 100 mg BIW) | Gastrointestinal AE Abdominal pain upper, subjects (Cohort 4A, 100 mg BIW) | Gastrointestinal AE Constipation, subjects (Cohort 4A, 100 mg BIW) | Gastrointestinal AE Retching, subjects (Cohort 4A, 100 mg BIW)
possibly related: Relationship of hepatobiliary AE acute liver injury, subject 4008 (Cohort 4, drug withdrawn)
5 (10.0%): GI AEs Leading to Study Drug Discontinuation: Total subjects discontinued (Cohort 4A, 100 mg BIW)
1 (2.2%): ALT (Screening) >3 × ULN-5 × ULN, subjects (Cohort 4A, 100 mg BIW) | ALT (Screening) >5 × ULN-10 × ULN, subjects (Cohort 4A, 100 mg BIW) | ALT (Screening) >10 × ULN-20 × ULN, subjects (Cohort 4A, 100 mg BIW) | AST (Screening) >3 × ULN-5 × ULN, subjects (Cohort 4A, 100 mg BIW) | AST (Screening) >5 × ULN-10 × ULN, subjects (Cohort 4A, 100 mg BIW) | AST (Screening) >10 × ULN-20 × ULN, subjects (Cohort 4A, 100 mg BIW)
13 (26.0%): Gastrointestinal AE Abdominal pain, subjects (Cohort 4A, 100 mg BIW)
2 (6.7%) n (%): TEAE Anxiety (Cohort 4, 200 mg BIW, N = 30) | TEAE Creatinine increased (Cohort 4, 200 mg BIW, N = 30) | TEAE GI Reflux Disease (Cohort 4, 200 mg BIW, N = 30) | TEAE Hyponatraemia (Cohort 4, 200 mg BIW, N = 30) | TEAE Insomnia (Cohort 4, 200 mg BIW, N = 30) | TEAE Pyrexia (Cohort 4, 200 mg BIW, N = 30) | TEAE Tremor (Cohort 4, 200 mg BIW, N = 30)
4 (13.3%) n (%): TEAE Neutropenia (Cohort 4, 200 mg BIW, N = 30)
1 subject(s): subjects discontinued due to neutropenia (Cohort 4A)
21 (70.0%) n (%): TEAE Diarrhoea (Cohort 4, 200 mg BIW, N = 30)
8 (26.7%) n (%): TEAE Hyperglycaemia (Cohort 4, 200 mg BIW, N = 30) | TEAE Vomiting (Cohort 4, 200 mg BIW, N = 30)
1 (3.3%) n (%): TEAE Arthralgias (Cohort 4, 200 mg BIW, N = 30) | TEAE Oral Candidiasis (Cohort 4, 200 mg BIW, N = 30) | TEAE Pneumonia (Cohort 4, 200 mg BIW, N = 30) | TEAE Staphylococcal Bacteremia (Cohort 4, 200 mg BIW, N = 30)
1: Grade of hepatobiliary AE hyperbilirubinemia, subject 4042 (Cohort 4, drug interrupted)
4 (8.0%): ALT (any time during therapy) >5 × ULN-10 × ULN, subjects (Cohort 4A, 100 mg BIW) | Gastrointestinal AE Abdominal discomfort, subjects (Cohort 4A, 100 mg BIW) | Gastrointestinal AE Dyspepsia, subjects (Cohort 4A, 100 mg BIW)
10 (33.3%) n (%): TEAE ALT increased (Cohort 4, 200 mg BIW, N = 30)
26 (52.0%): Gastrointestinal AE Diarrhoea, subjects (Cohort 4A, 100 mg BIW)
24 (80.0%) n (%): TEAE Acute GVHD (Cohort 4, 200 mg BIW, N = 30)
recovered/resolved: Outcome of hepatobiliary AE hyperbilirubinemia, subject 4042 (Cohort 4, drug interrupted) | Outcome of hepatobiliary AE acute liver injury, subject 4008 (Cohort 4, drug withdrawn)
4 (13.3%): All AEs, Grade 5 (deaths) (Cohort 4, 200 mg BIW, N = 30, entire study duration)
7 (23.3%) n (%): TEAE AST increased (Cohort 4, 200 mg BIW, N = 30) | Subjects completed treatment [1]
0: ALT (Screening) >20 × ULN, subjects (Cohort 4A, 100 mg BIW) | AST (Screening) >20 × ULN, subjects (Cohort 4A, 100 mg BIW) | AST (any time during therapy) >10 × ULN-20 × ULN, subjects (Cohort 4A, 100 mg BIW) | AST (any time during therapy) >20 × ULN, subjects (Cohort 4A, 100 mg BIW) | Alkaline Phosphatase (Screening) >2.5-5.0 × ULN, subjects (Cohort 4A, 100 mg BIW) | Alkaline Phosphatase (Screening) >5.0-20.0 × ULN, subjects (Cohort 4A, 100 mg BIW) | Alkaline Phosphatase (Screening) >20.0 × ULN, subjects (Cohort 4A, 100 mg BIW) | Alkaline Phosphatase (any time during therapy) >5.0-20.0 × ULN, subjects (Cohort 4A, 100 mg BIW) | Alkaline Phosphatase (any time during therapy) >20.0 × ULN, subjects (Cohort 4A, 100 mg BIW) | GI AE Leading to Study Drug Discontinuation: Dyspepsia, subjects (Cohort 4A, 100 mg BIW) | Gastrointestinal AE Abdominal distention, subjects (Cohort 4A, 100 mg BIW) | Gastrointestinal AE Diverticulum intestinal haemorragic, subjects (Cohort 4A, 100 mg BIW) | Gastrointestinal AE Dysphagia, subjects (Cohort 4A, 100 mg BIW) | Gastrointestinal AE Epigastric discomfort, subjects (Cohort 4A, 100 mg BIW) | Gastrointestinal AE GERD, subjects (Cohort 4A, 100 mg BIW) | Gastrointestinal AE Gastritis, subjects (Cohort 4A, 100 mg BIW) | Gastrointestinal AE Haematochezia, subjects (Cohort 4A, 100 mg BIW) | Gastrointestinal AE Large intestinal ulcer, subjects (Cohort 4A, 100 mg BIW) | Gastrointestinal AE Odynophagia, subjects (Cohort 4A, 100 mg BIW) | Gastrointestinal AE Oesophagitis, subjects (Cohort 4A, 100 mg BIW) | Hepatobiliary clinical AE Cholelithiasis, subjects (Cohort 4A, 100 mg BIW) | Hepatobiliary clinical AE Hepatomegaly, subjects (Cohort 4A, 100 mg BIW) | Hepatobiliary clinical AE Jaundice, subjects (Cohort 4A, 100 mg BIW) | Hepatobiliary clinical AE Liver injury, subjects (Cohort 4A, 100 mg BIW)
0%: Dyspepsia leading to study drug withdrawal (Cohort 4, 200 mg BIW, N = 30) | Vomiting leading to study drug withdrawal (Cohort 4, 200 mg BIW, N = 30)
23 (76.7%) n (%): Subjects who permanently discontinued treatment [1]
